{"source": "patent US20030203969A1", "about": "“Pharmaceutically active aromatic guanylhydrazones” (priority 2000, published 2003)", "key": {"clinical HIV-1 isolates": {"tested_on": "clinical HIV-1 isolates", "experiment": "Inhibition of clinical HIV-1 isolates in PBMCs from HIV-1-infected patients", "format": "cell-based", "conditions": "d14", "experimental": "HIV replication was measured either by p24 HIV Antigen Capture Assay Kit (ELISA; HIVAG-1 Monoclonal kit BIA011; Abbott) following the manufacturer's recommendation, or by using the Quantiplex HIV-1 RNA 3.0 Assay (bDNA) system (Chiron Diagnostics). The latter assay is a signal amplification nucleic acid probe assay (employing a sandwich nucleic acid hybridization procedure) for direct quantitation of HIV RNA in human plasma. There, in brief, HIV-1 is first concentrated from plasma by centrifugation. After release of genomic HIV-1 RNA from the virions, the RNA is captured to a microwell by a set of specific, synthetic oligonucleotide capture probes. A set of target probes hybridize to both the viral RNA and the pre-amplifier probes. The capture probes, comprised of 17 individual capture extenders, and the target probes, comprised of 81 individual target extenders, bind to different regions of the pol gene of the viral RNA. The amplifier probe hybridizes to the pre-amplifier forming a branched DNA (bDNA) complex. Then, multiple copies of an alkaline phosphatase labeled probe are hybridized to this immobilized bDNA complex. Detection is achieved by incubating the entire complex with a chemoluminescent substrate. Light emission is directly proportional to the amount of HIV-1 RNA present in each sample, and results are recorded as relative light units by an appropriate analyzer.\nPeripheral blood mononuclear cells (PBMCs) from HIV-1-infected patients were isolated—(after informal consent was given)—by Biocoll (Biochrom) gradient centrifugation. 1×10^6/ml PBMCs were cultured (5 ml in a six well 32-mm plate) in presence of the test drugs or in DMSO (control diluent) in RPMI 1640 medium supplemented with 10% autologous serum and 2 mM L-Glutamine at 37° C. and 5% CO2.\nThe culture medium was changed every 3 days during the experiments. Once a week, each culture was split 1:1 and 2×10^6 feeder-PBMCs (per well) and recombinant Interleukin 2 (IL-2) [10U/ml] (Roche) was added. Prior to addition to the cell cultures, the feeder-PBMCs, prepared from 4 healthy donors, were treated for 4 days with PHA-P and PB (2 μg/ml each per 2×10^6 cells). At day 14, viability of the PBMCs (Trypan-blue staining), cell count and virus load (p24 antigen: Innotest HIV Antigen mAb, Innogenetics N. V., Gent, Belgium, or bDNA: HIV-1 RNA 3.0 Assay, Bayer AG, Tarrytown, N.Y., USA) was determined. No significant differences in cell viability were observed (˜75-80% vital cells).\nAt day 14 of cultivation, the virus replicated vigorously in all untreated cultures. Numbers describe percent inhibition of HIV-1 replication as compared to control experiments."}, "[1]": {"tested_on": "omni-drug-resistant HIV-1", "experiment": "Inhibition of omni-drug-resistant HIV-1 in PM1 cells (p24)", "format": "cell-based", "experimental": "PM1 cells were infected with an “omni-drug-resistant HIV-1” (recombinant HIV-1 NL4-3 in which the Protease gene and the 5′ part of the Reverse Transcriptase gene was replaced by the corresponding sequences from a omni-drug-resistant clinical isolate, resistant to all currently available anti-HIV drugs. Infected cells were incubated with Compound No. 4 at a concentration of 250, 500 and 1000 nM or DMSO (control). The culture medium was changed every third day. Cell viability (Trypan-blue staining), cell counts and p24 levels were determined at day 6 and 12.\nAt day 12 of infection, the virus replicated vigorously in untreated cultures. Numbers describe percent inhibition of HIV-1 replication as compared to control experiments."}, "PI-resistant HIV-1": {"tested_on": "PI-resistant HIV-1", "experiment": "Inhibition of multiple anti-retroviral drug resistant HIV-1 strains: PI-resistant", "format": "cell-based", "experimental": "(§1) In addition, various different “types” of multiple anti-retroviral drug resistant HIV-1 strains were also tested: […]"}, "[2]": {"tested_on": "NRTI + PI-resistant HIV-1", "experiment": "Inhibition of multiple anti-retroviral drug resistant HIV-1 strains: NRTI + PI-resistant", "format": "cell-based", "experimental": "as §1"}, "HepG2 cells": {"tested_on": "HepG2 cells", "format": "cell-based, human", "conditions": "Lamivudine-resistant HBV experiment, read-out: TC50 (the source's name)", "experimental": "Human HepG2-2.2.15 cells (ATCC Cat. No. CRL-11997), chronically infected with HBV, are plated in 96-well microtiter plates in DMEM medium supplemented with fetal bovine serum. After incubation at 37° C. in a humidified, 5% CO2 environment for 16-24 hours, the monolayer of HepG2-2.2.15 cells is washed and the medium is replaced with complete medium containing various concentrations of test compound. Every three days during the experiments, the culture medium is replaced with fresh medium containing the appropriately diluted test compound. Six days following the initial administration of the test compound, the cell culture supernatant is collected and clarified by centrifugation. The cell viability is evaluated by a dye uptake procedure (Promega's Cell Titer Aqueous One Solution). Virion-associated HBV DNA present in the tissue culture supernatant is amplified employing PCR technology using primer pairs derived from the HBV strain ayw. Subsequently, the PCR-amplified HBV DNA is detected in real-time by monitoring increases in fluorescence signals that result from exonucleolytic degradation of a quenched fluorescent probe molecule following hybridization of the probe to the amplified HBV DNA (TaqMan; Perkin-Elmer).\nThe same type of experiments was additionally performed with a mutant, Lamivudine-resistant HBV strain, which was transfected into HepG2 cells."}}, "data": [{"smiles": "CC(=NNC(=N)N)c1cc(NC(=O)CCCCCCCCC(=O)Nc2cc(C(C)=NNC(=N)N)cc(C(C)=NNC(=N)N)c2)cc(C(C)=NNC(=N)N)c1", "note": "[Compound 4, N,N′-bis (3,5-diacetylphenyl) decane diamide tetrakis (amidinohydrazone)]", "values": [{"measurement": "percent inhibition of HIV-1 replication as compared to control", "setting": "clinical HIV-1 isolates; HIV-infected PBMCs from patient 1, 0.5 μM", "value": 91.6, "unit": "%"}, {"measurement": "percent inhibition of HIV-1 replication as compared to control", "setting": "clinical HIV-1 isolates; HIV-infected PBMCs from patient 1, 1.0 μM", "value": 90.7, "unit": "%"}, {"measurement": "percent inhibition of HIV-1 replication as compared to control", "setting": "clinical HIV-1 isolates; HIV-infected PBMCs from patient 2, 0.5 μM", "value": 85.8, "unit": "%"}, {"measurement": "percent inhibition of HIV-1 replication as compared to control", "setting": "clinical HIV-1 isolates; HIV-infected PBMCs from patient 2, 1.0 μM", "value": 97.6, "unit": "%"}, {"measurement": "percent inhibition of HIV-1 replication as compared to control", "setting": "clinical HIV-1 isolates; HIV-infected PBMCs from patient 3, 0.5 μM", "value": 91, "unit": "%"}, {"measurement": "percent inhibition of HIV-1 replication as compared to control", "setting": "clinical HIV-1 isolates; HIV-infected PBMCs from patient 3, 1.0 μM", "value": 90, "unit": "%"}, {"measurement": "percent inhibition of HIV-1 replication as compared to control", "setting": "[1]; omni-drug-resistant HIV-1, 0.25 μM, d6", "value": 15, "unit": "%"}, {"measurement": "percent inhibition of HIV-1 replication as compared to control", "setting": "[1]; omni-drug-resistant HIV-1, 0.25 μM, d12", "value": 64, "unit": "%"}, {"measurement": "percent inhibition of HIV-1 replication as compared to control", "setting": "[1]; omni-drug-resistant HIV-1, 0.5 μM, d6", "value": 30, "unit": "%"}, {"measurement": "percent inhibition of HIV-1 replication as compared to control", "setting": "[1]; omni-drug-resistant HIV-1, 0.5 μM, d12", "value": 95, "unit": "%"}, {"measurement": "percent inhibition of HIV-1 replication as compared to control", "setting": "[1]; omni-drug-resistant HIV-1, 1.0 μM, d6", "value": 58, "unit": "%"}, {"measurement": "percent inhibition of HIV-1 replication as compared to control", "setting": "[1]; omni-drug-resistant HIV-1, 1.0 μM, d12", "value": 97, "unit": "%"}, {"measurement": "[%] inhibition of virus replication", "setting": "PI-resistant HIV-1; PI-resistant HIV-1, 0.5 μM", "value": 50, "unit": "%"}, {"measurement": "[%] inhibition of virus replication", "setting": "PI-resistant HIV-1; PI-resistant HIV-1, 1.0 μM", "value": 95, "unit": "%"}, {"measurement": "[%] inhibition of virus replication", "setting": "[2]; NRTI + PI-resistant HIV-1, 0.5 μM", "value": 68, "unit": "%"}, {"measurement": "[%] inhibition of virus replication", "setting": "[2]; NRTI + PI-resistant HIV-1, 1.0 μM", "value": 73, "unit": "%"}, {"measurement": "CC50", "setting": "HepG2 cells", "value": 24.7, "unit": "µM"}]}]}
